Reference: publication PMC4821443 (MedChemComm, 2015)

Legend:
tubulin = tubulin (Sus scrofa, UniProt P02550+P02554); assay: In vitro tubulin polymerization assay; assay type: biochemical; details: at concentrations as high as 200 µM (data not shown)
[1] = system: breast cancer subpanel (six cell lines); assay: NCI-60 screen, breast cancer subpanel summary; assay type: cell-based; details: Homo sapiens, T47D, read-out: GI50 values range, breast cancer subpanel
[2] = system: panel of 60 human cancer cell lines; assay: NCI-60 cell line anti-cancer screen, whole panel summary; assay type: cell-based; details: read-out: average GI50 value against all the cancer cell lines screened, NCI-60 panel

Sequence of tubulin (P02550 whole entry): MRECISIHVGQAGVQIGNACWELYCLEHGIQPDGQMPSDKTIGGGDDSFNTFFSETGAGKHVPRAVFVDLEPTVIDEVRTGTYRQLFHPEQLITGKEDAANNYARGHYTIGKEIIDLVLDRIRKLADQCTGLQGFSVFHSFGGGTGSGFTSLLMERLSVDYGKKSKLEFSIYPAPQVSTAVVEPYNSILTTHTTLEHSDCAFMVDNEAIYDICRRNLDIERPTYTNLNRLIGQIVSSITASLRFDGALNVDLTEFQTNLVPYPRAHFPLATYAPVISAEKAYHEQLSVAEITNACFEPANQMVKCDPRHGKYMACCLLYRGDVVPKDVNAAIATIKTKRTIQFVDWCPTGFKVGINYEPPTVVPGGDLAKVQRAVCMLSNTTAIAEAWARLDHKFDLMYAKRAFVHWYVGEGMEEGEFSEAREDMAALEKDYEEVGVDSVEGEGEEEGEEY
Sequence of tubulin (P02554 whole entry): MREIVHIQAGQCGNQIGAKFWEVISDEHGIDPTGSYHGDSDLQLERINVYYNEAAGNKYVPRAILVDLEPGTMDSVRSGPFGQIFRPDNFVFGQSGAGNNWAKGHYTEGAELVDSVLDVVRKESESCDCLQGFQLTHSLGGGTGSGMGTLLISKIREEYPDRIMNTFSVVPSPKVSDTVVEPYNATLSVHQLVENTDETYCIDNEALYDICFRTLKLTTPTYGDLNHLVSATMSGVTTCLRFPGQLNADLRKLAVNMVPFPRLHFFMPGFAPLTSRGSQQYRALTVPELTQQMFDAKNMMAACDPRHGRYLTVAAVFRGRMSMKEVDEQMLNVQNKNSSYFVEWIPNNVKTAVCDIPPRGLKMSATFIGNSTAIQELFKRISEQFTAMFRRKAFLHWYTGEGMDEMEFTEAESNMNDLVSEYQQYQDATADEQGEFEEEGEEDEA

inhibition of tubulin polymerization (tubulin) | SMILES | GI50 [1] [nM] | GI50 [2] [nM]
failed to inhibit tubulin polymerization | COc1cc(-c2nn(C)nc2-c2cc3ccccc3s2)cc(OC)c1OC [Compound 9, 4-(benzo[b]thiophen-2-yl)-2-methyl-5-(3,4,5-trimethoxyphenyl)-2H-1,2,3-triazole] | 40 to 1600 | 
 | COc1cc(OC)cc(-c2n[nH]nc2-c2c[nH]c3ccccc23)c1 [Compound 11e] | 17 to 76 | 856
 | COc1cc(-c2n[nH]nc2-c2cc3ccccc3s2)cc(OC)c1OC [Compound 8a, 4-(benzo[b]thiophen-2-yl)-5-(3,4,5-trimeth-oxyphenyl)-2H-1,2,3-triazole] | ≤ 14 | 
 | COc1ccc(-c2n[nH]nc2-c2csc3ccccc23)cc1OC [Compound 11b] | 630 to 3210 | 
 | COc1cc(-c2n[nH]nc2-c2c[nH]c3ccccc23)cc(OC)c1OC [Compound 11d] | 28 to 89 | 424
